Reference: PubChem BioAssay AID1963429 (Molecular Pharmacology Branch, DTP, NCI, 2024)
Where “and” joins values, the source holds several entries; their conditions need not be identical. Equal values may be shown once.

Test system: 126254-015-R-J1-PDC complex spheroid growth, % test/control
Assay: Anticancer human tumor 126254-015-R-J1-PDC patient-derived soft tissue sarcoma cell line growth inhibition [Asc]
Settings: for viability, T/C: stronger effect = lower value
Procedure, shortened: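 Tumor cells were grown as multicellular spheroids with stromal HUVEC and mesenchymal stem cells and treated singly or in combination. Concentrations fell in half-log steps from the clinical Cmax, or from 10 microM where none was known.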

[1] = curve of first compound, second compound 0.1 µM
[2] = curve of first compound, second compound 0.316 µM
[3] = curve of first compound, second compound 1 µM
[4] = curve of first compound, second compound 3.16 µM
[5] = curve of first compound, second compound 10 µM
[6] = second compound 0.1 µM, first compound 0.0316 µM
[7] = second compound 0.1 µM, first compound 0.1 µM
[8] = second compound 0.1 µM, first compound 0.316 µM
[9] = second compound 0.1 µM, first compound 1 µM
[10] = second compound 0.1 µM, first compound 3.16 µM
[11] = second compound 0.1 µM, first compound 10 µM
[12] = second compound 0.316 µM, first compound 0.0316 µM
[13] = second compound 0.316 µM, first compound 0.1 µM
[14] = second compound 0.316 µM, first compound 0.316 µM
[15] = second compound 0.316 µM, first compound 1 µM
[16] = second compound 0.316 µM, first compound 3.16 µM
[17] = second compound 0.316 µM, first compound 10 µM
[18] = second compound 1 µM, first compound 0.0316 µM
[19] = second compound 1 µM, first compound 0.1 µM
[20] = second compound 1 µM, first compound 0.316 µM
[21] = second compound 1 µM, first compound 1 µM
[22] = second compound 1 µM, first compound 3.16 µM
[23] = second compound 1 µM, first compound 10 µM
[24] = second compound 3.16 µM, first compound 0.0316 µM
[25] = second compound 3.16 µM, first compound 0.1 µM
[26] = second compound 3.16 µM, first compound 0.316 µM
[27] = second compound 3.16 µM, first compound 1 µM
[28] = second compound 3.16 µM, first compound 3.16 µM
[29] = second compound 3.16 µM, first compound 10 µM
[30] = second compound 10 µM, first compound 0.0316 µM
[31] = second compound 10 µM, first compound 0.1 µM
[32] = second compound 10 µM, first compound 0.316 µM
[33] = second compound 10 µM, first compound 1 µM
[34] = second compound 10 µM, first compound 3.16 µM
[35] = second compound 10 µM, first compound 10 µM
[36] = second compound 0.1 µM, first compound 0.00316 µM
[37] = second compound 0.1 µM, first compound 0.01 µM
[38] = second compound 0.316 µM, first compound 0.00316 µM
[39] = second compound 0.316 µM, first compound 0.01 µM
[40] = second compound 1 µM, first compound 0.00316 µM
[41] = second compound 1 µM, first compound 0.01 µM
[42] = second compound 3.16 µM, first compound 0.00316 µM
[43] = second compound 3.16 µM, first compound 0.01 µM
[44] = second compound 10 µM, first compound 0.00316 µM
[45] = second compound 10 µM, first compound 0.01 µM
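Note: spheroids exposed to compound for seven days.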
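Throughout, for viability, T/C: 100% = DMSO vehicle control wells.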

IC50 [1] [nM]	IC50 [2] [nM]	IC50 [3] [nM]	IC50 [4] [nM]	IC50 [5] [nM]	Structure (SMILES)	viability, T/C [6] [%]	viability, T/C [7] [%]	viability, T/C [8] [%]	viability, T/C [9] [%]	viability, T/C [12] [%]	viability, T/C [13] [%]	viability, T/C [14] [%]	viability, T/C [15] [%]	viability, T/C [18] [%]	viability, T/C [19] [%]	viability, T/C [20] [%]	viability, T/C [21] [%]	viability, T/C [24] [%]	viability, T/C [25] [%]	viability, T/C [26] [%]	further results
1860	1390	1360	772	1390	C=C(F)C(=O)N1CCN(c2nc(OCC3CCCN3C)nc3c2CCN(c2cccc4cccc(Cl)c24)C3)CC1CC#N (configuration not stated) + Cc1c(S(C)(=O)=O)c(-c2cc(F)cc(N3CCN(c4ccc(NS(=O)(=O)c5ccc(NC(CCN6CCC(C(=O)OCCCP(=O)(O)O)CC6)CSc6ccccc6)c(S(=O)(=O)C(F)(F)F)c5)cc4)CC3)c2)c(-c2ccc(Cl)cc2)n1C(C)C	87.2	97.2	89.6	76.5	83	91.2	80.2	61	83.5	66.3	76.3	57.7	88.3	75	61.5	viability, T/C [10]: 27.4%; viability, T/C [11]: 0.18%; viability, T/C [16]: 22.8%; viability, T/C [17]: 0.13%; viability, T/C [22]: 27.2%; viability, T/C [23]: 0.14%; viability, T/C [27]: 51.7%; viability, T/C [28]: 20.5%; viability, T/C [29]: 0.13%; viability, T/C [30]: 79.2%; viability, T/C [31]: 77.5%; viability, T/C [32]: 77.8%; viability, T/C [33]: 62.4%; viability, T/C [34]: 18.5%; viability, T/C [35]: 0.2%
					CCN1C(C(=O)NC23CCC(C(=O)O)(CC2)CC3)C(c2cccc(Cl)c2F)C2(C(=O)Nc3cc(Cl)ccc32)C12CCCCC2 (configuration not stated)																viability, T/C (compound 0.00949 µM): 105% and 96.1%; viability, T/C (compound 0.03 µM): 95.4% [middle of 15 runs]; viability, T/C (compound 0.0949 µM): 96.8% [middle of 15 runs]; viability, T/C (compound 0.3 µM): 93.5% [middle of 15 runs]; viability, T/C (compound 0.949 µM): 96.8% [middle of 15 runs]; IC50 (compound alone, run of 09/27/2022): > 3000 nM; IC50 (curve of compound): > 3000 nM
> 10000	> 10000	6580	7170	9190	C#Cc1c(F)ccc2cc(O)cc(-c3ncc4c(N5CC6CCC(C5)N6)nc(OCC56CCCN5CC(F)C6)nc4c3F)c12 (configuration not stated) + Cc1c(S(C)(=O)=O)c(-c2cc(F)cc(N3CCN(c4ccc(NS(=O)(=O)c5ccc(NC(CCN6CCC(C(=O)OCCCP(=O)(O)O)CC6)CSc6ccccc6)c(S(=O)(=O)C(F)(F)F)c5)cc4)CC3)c2)c(-c2ccc(Cl)cc2)n1C(C)C	85.4	92.8	90.4	80.9	88.5	86	80.9	79.2	84	92.2	73.8	81.9	82.6	90.8	83.4	viability, T/C [10]: 72.4%; viability, T/C [11]: 59.9%; viability, T/C [16]: 72.4%; viability, T/C [17]: 54.5%; viability, T/C [22]: 72.3%; viability, T/C [23]: 37.4%; viability, T/C [27]: 79.5%; viability, T/C [28]: 65.8%; viability, T/C [29]: 43.6%; viability, T/C [30]: 87.1%; viability, T/C [31]: 88.4%; viability, T/C [32]: 81.2%; viability, T/C [33]: 75.5%; viability, T/C [34]: 75%; viability, T/C [35]: 47.8%
48.5	43.8	47.9	42	45.3	COc1c(OCCCN2CCOCC2)ccc2c3n(c(=NC(=O)c4cnc(N)nc4)nc12)CCN3 + Cc1c(S(C)(=O)=O)c(-c2cc(F)cc(N3CCN(c4ccc(NS(=O)(=O)c5ccc(NC(CCN6CCC(C(=O)OCCCP(=O)(O)O)CC6)CSc6ccccc6)c(S(=O)(=O)C(F)(F)F)c5)cc4)CC3)c2)c(-c2ccc(Cl)cc2)n1C(C)C	63.5	28.3	16	8.08	59.1	29.7	15.3	8.05	61.9	30.4	14.9	8.15	54.9	30.1	14.3	viability, T/C [36]: 96.5%; viability, T/C [37]: 84.5%; viability, T/C [38]: 88%; viability, T/C [39]: 76.6%; viability, T/C [40]: 83.7%; viability, T/C [41]: 75.5%; viability, T/C [42]: 77.5%; viability, T/C [43]: 77.5%; viability, T/C [27]: 8.66%; viability, T/C [44]: 84.2%; viability, T/C [45]: 87.7%; viability, T/C [30]: 55.6%; viability, T/C [31]: 30.6%; viability, T/C [32]: 15.8%; viability, T/C [33]: 7.09%
644	502	494	420	321	O=C(c1ccc(F)c(F)c1Nc1ccc(I)cc1F)N1CC(O)([C@@H]2CCCCN2)C1 + Cc1c(S(C)(=O)=O)c(-c2cc(F)cc(N3CCN(c4ccc(NS(=O)(=O)c5ccc(NC(CCN6CCC(C(=O)OCCCP(=O)(O)O)CC6)CSc6ccccc6)c(S(=O)(=O)C(F)(F)F)c5)cc4)CC3)c2)c(-c2ccc(Cl)cc2)n1C(C)C	106	87.7	70.7	37.6	84.7	83.4	60.9	33.6	83.9	79.3	65.5	26.9	75.5	82.5	55.8	viability, T/C [36]: 87.3%; viability, T/C [37]: 106%; viability, T/C [38]: 88.5%; viability, T/C [39]: 87.7%; viability, T/C [40]: 89.2%; viability, T/C [41]: 93.7%; viability, T/C [42]: 88.1%; viability, T/C [43]: 92%; viability, T/C [27]: 27.6%; viability, T/C [44]: 90.1%; viability, T/C [45]: 98%; viability, T/C [30]: 80.2%; viability, T/C [31]: 75.3%; viability, T/C [32]: 49.6%; viability, T/C [33]: 25.3%
> 10000	> 10000	> 10000			C=CC(=O)N1CCN(c2nc(=O)n(-c3c(C)ccnc3C(C)C)c3nc(-c4c(O)cccc4F)c(F)cc23)C(C)C1 (configuration not stated) + CNC(C)C(=O)NC1CN(S(=O)(=O)c2cccc(S(=O)(=O)N3CCC4CCC(C(=O)NC(c5ccccc5)c5ccccc5)N4C(=O)C(NC(=O)C(C)NC)C3)c2)CCC2CCC(C(=O)NC(c3ccccc3)c3ccccc3)N2C1=O	70.7	78	81.5	75.7	69.2	77.2	71.5	70.9	62.8	72.4	67.5	72				IC50 (curve of first compound, second compound 0.01 µM): > 10000 nM; IC50 (curve of first compound, second compound 0.0316 µM): > 10000 nM; viability, T/C (second compound 0.01 µM, first compound 0.0316 µM): 94.4%; viability, T/C (second compound 0.01 µM, first compound 0.1 µM): 99.5%; viability, T/C (second compound 0.01 µM, first compound 0.316 µM): 94.5%; viability, T/C (second compound 0.01 µM, first compound 1 µM): 110%; viability, T/C (second compound 0.01 µM, first compound 3.16 µM): 101%; viability, T/C (second compound 0.01 µM, first compound 10 µM): 82.3%; viability, T/C (second compound 0.0316 µM, first compound 0.0316 µM): 85.1%; viability, T/C (second compound 0.0316 µM, first compound 0.1 µM): 84.8%; viability, T/C (second compound 0.0316 µM, first compound 0.316 µM): 86.7%; viability, T/C (second compound 0.0316 µM, first compound 1 µM): 84.2%; viability, T/C (second compound 0.0316 µM, first compound 3.16 µM): 87.1%; viability, T/C (second compound 0.0316 µM, first compound 10 µM): 75.2%; viability, T/C [10]: 82.7%; viability, T/C [11]: 67.3%; viability, T/C [16]: 73.9%; viability, T/C [17]: 67.7%; viability, T/C [22]: 70.3%; viability, T/C [23]: 65.5%
